Key:
Details in all cases: exposure time: 72 h
E13 [1] = patient-derived glioblastoma stem cells of classical subtype; test: surviving fraction (nuclei count normalised to DMSO); higher = more cells surviving (less toxic)
E21 [2] = patient-derived glioblastoma stem cells of mesenchymal subtype; test: as above
E28 [3] = patient-derived glioblastoma stem cells of classical subtype; test: as above
E34 [4] = patient-derived glioblastoma stem cells of proneural subtype; test: as above
E57 [5] = patient-derived glioblastoma stem cells of mesenchymal subtype; test: as above
FT3469 [6] = normal neural stem cell line; test: as above
E13 [7] = test: phenotypic distance (Euclidean, principal components) from DMSO controls (arbitrary units); higher = stronger morphological change
E21 [8] = test: as above
E28 [9] = test: as above
E34 [10] = test: as above
E57 [11] = test: as above
FT3469 [12] = test: as above
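For phenotypic distance (Euclidean, principal components) from DMSO controls in this document: cell Painting imaging in 384-well plates, CellProfiler features reduced to at least 20 principal components, Euclidean distance versus same-plate DMSO vehicle wells (0.1% v/v), median over six images per well.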
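For surviving fraction (nuclei count normalised to DMSO) in this document: nuclei counted by high-content imaging of Hoechst-stained cells in laminin-coated 384-well plates, relative to 0.1% DMSO vehicle wells, with staurosporine as cell-death control.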

CN1C(=O)[C@@]23C[C@]4([C@]56C[C@@]78SS[C@@](CO)(C(=O)N7[C@H]5Nc5ccccc56)N(C)C8=O)c5ccccc5N[C@@H]4N2C(=O)[C@]1(CO)SS3 [Chaetocin]
Details	phenotypic distance	surviving fraction
E13 [1], 4.1 nM	–	0.552
E13 [1], 12.3 nM	–	0.4
E13 [1], 37 nM	–	0.0566
E13 [1], 111.1 nM	–	0.0323
E13 [1], 333.3 nM	–	0.00998
E13 [1], 1000 nM	–	0.0119
E13 [1], 3000 nM	–	0.0124
E13 [7], 4.1 nM	2.76	–
E13 [7], 12.3 nM	3.18	–
E13 [7], 37 nM	5.87	–
E13 [7], 111.1 nM	7.1	–
E13 [7], 333.3 nM	10.5	–
E13 [7], 1000 nM	9.83	–
E13 [7], 3000 nM	10.7	–
E21 [2], 4.1 nM	–	0.253
E21 [2], 12.3 nM	–	0.0911
E21 [2], 37 nM	–	0.0242
E21 [2], 111.1 nM	–	0.00808
E21 [2], 333.3 nM	–	0.00862
E21 [2], 1000 nM	–	0.0113
E21 [2], 3000 nM	–	0.00808
E21 [8], 4.1 nM	4.37	–
E21 [8], 12.3 nM	4.95	–
E21 [8], 37 nM	7.07	–
E21 [8], 111.1 nM	10.1	–
E21 [8], 333.3 nM	12.7	–
E21 [8], 1000 nM	11.4	–
E21 [8], 3000 nM	14.2	–
E28 [3], 4.1 nM	–	0.328
E28 [3], 12.3 nM	–	0.281
E28 [3], 37 nM	–	0.1561
E28 [3], 111.1 nM	–	0.111
E28 [3], 333.3 nM	–	0.00802
E28 [3], 1000 nM	–	0.00283
E28 [3], 3000 nM	–	0.00707
E28 [9], 4.1 nM	1.98	–
E28 [9], 12.3 nM	2.51	–
E28 [9], 37 nM	3.933	–
E28 [9], 111.1 nM	5.55	–
E28 [9], 333.3 nM	10.4	–
E28 [9], 1000 nM	9.23	–
E28 [9], 3000 nM	9.7	–
E34 [4], 4.1 nM	–	0.41
E34 [4], 12.3 nM	–	0.345
E34 [4], 37 nM	–	0.149
E34 [4], 111.1 nM	–	0.0449
E34 [4], 333.3 nM	–	0.0206
E34 [4], 1000 nM	–	0.0187
E34 [4], 3000 nM	–	0.0159
E34 [10], 4.1 nM	2.24	–
E34 [10], 12.3 nM	3.35	–
E34 [10], 37 nM	6.13	–
E34 [10], 111.1 nM	7.1327	–
E34 [10], 333.3 nM	10.8	–
E34 [10], 1000 nM	13	–
E34 [10], 3000 nM	11.9	–
E57 [5], 4.1 nM	–	0.765
E57 [5], 12.3 nM	–	0.402
E57 [5], 37 nM	–	0.056
E57 [5], 111.1 nM	–	0.0464
E57 [5], 333.3 nM	–	0.00359
E57 [5], 1000 nM	–	0.00745
E57 [5], 3000 nM	–	0.00248
E57 [11], 4.1 nM	2.84	–
E57 [11], 12.3 nM	3.23	–
E57 [11], 37 nM	4.87	–
E57 [11], 111.1 nM	5.13	–
E57 [11], 333.3 nM	8.15	–
E57 [11], 1000 nM	9.97	–
E57 [11], 3000 nM	10.7	–
FT3469 [6], 4.1 nM	–	0.518
FT3469 [6], 12.3 nM	–	0.481
FT3469 [6], 37 nM	–	0.364
FT3469 [6], 111.1 nM	–	0.194
FT3469 [6], 333.3 nM	–	0.00806
FT3469 [6], 1000 nM	–	0.0296
FT3469 [6], 3000 nM	–	0.0116
FT3469 [12], 4.1 nM	3.69	–
FT3469 [12], 12.3 nM	3.49	–
FT3469 [12], 37 nM	4.19	–
FT3469 [12], 111.1 nM	5.8	–
FT3469 [12], 333.3 nM	10.7	–
FT3469 [12], 1000 nM	10.1	–
FT3469 [12], 3000 nM	9.44	–

Cc1ccc(NC(=O)c2ccc3c(c2)OCCO3)cc1NC(=O)c1ccc2nc(OCCN3CCCC3)ccc2c1
Details	phenotypic distance	surviving fraction
E13 [1], 4.1 nM	–	0.567
E13 [1], 4.11523 nM	–	0.579
E13 [1], 12.3 nM	–	0.474
E13 [1], 12.34567901 nM	–	0.507
E13 [1], 37 nM	–	0.421
E13 [1], 37.037 nM	–	0.402
E13 [1], 111.1 nM	–	0.347
E13 [1], 111.1111111 nM	–	0.456
E13 [1], 333.3 nM	–	0.332
E13 [1], 333.333 nM	–	0.347
E13 [1], 1000 nM	–	0.2728
E13 [1], 3000 nM	–	0.245
E13 [7], 4.1 nM	2.33	–
E13 [7], 4.11523 nM	2.3	–
E13 [7], 12.3 nM	2.75	–
E13 [7], 12.34567901 nM	2.91	–
E13 [7], 37 nM	2.97	–
E13 [7], 37.037 nM	2.96	–
E13 [7], 111.1 nM	2.97	–
E13 [7], 111.1111111 nM	2.53	–
E13 [7], 333.3 nM	3.19	–
E13 [7], 333.333 nM	3.19	–
E13 [7], 1000 nM	4.14	–
E13 [7], 3000 nM	4.93	–
E21 [2], 4.1 nM	–	0.572
E21 [2], 4.11523 nM	–	0.511
E21 [2], 12.3 nM	–	0.385
E21 [2], 12.34567901 nM	–	0.434
E21 [2], 37 nM	–	0.402
E21 [2], 37.037 nM	–	0.406
E21 [2], 111.1 nM	–	0.276
E21 [2], 111.1111111 nM	–	0.306
E21 [2], 333.3 nM	–	0.28
E21 [2], 333.333 nM	–	0.23
E21 [2], 1000 nM	–	0.235
E21 [2], 3000 nM	–	0.159
E21 [8], 4.1 nM	1.96	–
E21 [8], 4.11523 nM	2.3	–
E21 [8], 12.3 nM	3.3	–
E21 [8], 12.34567901 nM	2.79	–
E21 [8], 37 nM	4.37	–
E21 [8], 37.037 nM	3.31	–
E21 [8], 111.1 nM	5.55	–
E21 [8], 111.1111111 nM	4.4	–
E21 [8], 333.3 nM	4.63	–
E21 [8], 333.333 nM	5.16	–
E21 [8], 1000 nM	4.03	–
E21 [8], 3000 nM	3.92	–
E28 [3], 4.1 nM	–	0.547
E28 [3], 4.11523 nM	–	0.493
E28 [3], 12.3 nM	–	0.385
E28 [3], 12.34567901 nM	–	0.432
E28 [3], 37 nM	–	0.366
E28 [3], 37.037 nM	–	0.346
E28 [3], 111.1 nM	–	0.309
E28 [3], 111.1111111 nM	–	0.32
E28 [3], 333.3 nM	–	0.309
E28 [3], 333.333 nM	–	0.242
E28 [3], 1000 nM	–	0.317
E28 [3], 3000 nM	–	0.285
E28 [9], 4.1 nM	2.24	–
E28 [9], 4.11523 nM	2.33	–
E28 [9], 12.3 nM	3.06	–
E28 [9], 12.34567901 nM	2.58	–
E28 [9], 37 nM	3.23	–
E28 [9], 37.037 nM	2.95	–
E28 [9], 111.1 nM	3.14	–
E28 [9], 111.1111111 nM	2.92	–
E28 [9], 333.3 nM	2.79	–
E28 [9], 333.333 nM	3.14	–
E28 [9], 1000 nM	2.41	–
E28 [9], 3000 nM	2.42	–
E34 [4], 4.1 nM	–	0.581
E34 [4], 4.11523 nM	–	0.432
E34 [4], 12.3 nM	–	0.436
E34 [4], 12.34567901 nM	–	0.574
E34 [4], 37 nM	–	0.548
E34 [4], 37.037 nM	–	0.385
E34 [4], 111.1 nM	–	0.505
E34 [4], 111.1111111 nM	–	0.555
E34 [4], 333.3 nM	–	0.486
E34 [4], 333.333 nM	–	0.376
E34 [4], 1000 nM	–	0.494
E34 [4], 3000 nM	–	0.464
E34 [10], 4.1 nM	1.52	–
E34 [10], 4.11523 nM	2.43	–
E34 [10], 12.3 nM	2.63	–
E34 [10], 12.34567901 nM	1.82	–
E34 [10], 37 nM	2.02	–
E34 [10], 37.037 nM	2.96	–
E34 [10], 111.1 nM	2.75	–
E34 [10], 111.1111111 nM	2.28	–
E34 [10], 333.3 nM	3	–
E34 [10], 333.333 nM	3.8	–
E34 [10], 1000 nM	2.97	–
E34 [10], 3000 nM	3.82	–
E57 [5], 4.1 nM	–	0.335
E57 [5], 4.11523 nM	–	0.321
E57 [5], 12.3 nM	–	0.23
E57 [5], 12.34567901 nM	–	0.214
E57 [5], 37 nM	–	0.296
E57 [5], 37.037 nM	–	0.268
E57 [5], 111.1 nM	–	0.215
E57 [5], 111.1111111 nM	–	0.277
E57 [5], 333.3 nM	–	0.209
E57 [5], 333.333 nM	–	0.246
E57 [5], 1000 nM	–	0.199
E57 [5], 3000 nM	–	0.17
E57 [11], 4.1 nM	2.44	–
E57 [11], 4.11523 nM	2.93	–
E57 [11], 12.3 nM	3.38	–
E57 [11], 12.34567901 nM	3.54	–
E57 [11], 37 nM	3.19	–
E57 [11], 37.037 nM	3.43	–
E57 [11], 111.1 nM	3.22	–
E57 [11], 111.1111111 nM	3.19	–
E57 [11], 333.3 nM	3.67	–
E57 [11], 333.333 nM	3.36	–
E57 [11], 1000 nM	3.79	–
E57 [11], 3000 nM	3.67	–
FT3469 [6], 4.1 nM	–	0.613
FT3469 [6], 4.11523 nM	–	0.62
FT3469 [6], 12.3 nM	–	0.72
FT3469 [6], 12.34567901 nM	–	0.67
FT3469 [6], 37 nM	–	0.636
FT3469 [6], 37.037 nM	–	0.618
FT3469 [6], 111.1 nM	–	0.608
FT3469 [6], 111.1111111 nM	–	0.667
FT3469 [6], 333.3 nM	–	0.674
FT3469 [6], 333.333 nM	–	0.615
FT3469 [6], 1000 nM	–	0.602
FT3469 [6], 3000 nM	–	0.484
FT3469 [12], 4.1 nM	2.71	–
FT3469 [12], 4.11523 nM	2.72	–
FT3469 [12], 12.3 nM	3.04	–
FT3469 [12], 12.34567901 nM	2.97	–
FT3469 [12], 37 nM	3.5	–
FT3469 [12], 37.037 nM	3.59	–
FT3469 [12], 111.1 nM	3.07	–
FT3469 [12], 111.1111111 nM	3.24	–
FT3469 [12], 333.3 nM	4.42	–
FT3469 [12], 333.333 nM	3.16	–
FT3469 [12], 1000 nM	2.96	–
FT3469 [12], 3000 nM	3.35	–
